Source: ChEMBL document CHEMBL1123014, “Synthesis and pharmacological activity of partially modified retro-inverso dermorphin tetrapeptides” (J Med Chem, 1985)
pIC50: −log10 of the molar value.

Legend:
[1] = Half-life was determined; type: ADME; settings: human
Cavia porcellus = species on record: Cavia porcellus; assay: In vitro inhibition of contractions in the electrically stimulated guinea pig ileum.; type: functional
Mus musculus [2] = assay: In vivo analgesic activity in the mouse tail-flick assay following i.c.v. administration.; type: functional
Mus musculus [3] = assay: In vivo analgesic activity in the mouse tail-flick assay following s.c. administration.; type: functional; settings: sc
[4] = Half-life of the compound; type: ADME
Mus musculus [5] = assay: In vivo analgesic potency in mice compared to morphine after s.c. administration.; type: functional
Mus musculus [6] = assay: In vivo analgesic potency in mice compared to morphine after i.c.v. administration.; type: functional

Row | SMILES | half-life [1] [min] | pIC50 (Cavia porcellus) | ED50 (Mus musculus [2]) [pmol/mouse] | ED50 (Mus musculus [3]) [µmol/kg] | half-life [4] [min] | Relative potency (Mus musculus [5]) | Relative potency (Mus musculus [6])
1 | CC(C(=O)NCC(=O)N[C@H](Cc1ccccc1)N(C)C(=O)[C@@H](C)NC(=O)[C@@H](N)Cc1ccc(O)cc1)c1ccccc1 (stereo partly specified) | 60 | 7.51 | 269 |  |  |  | 
2 | CN1CC[C@]23c4c5ccc(O)c4O[C@H]2[C@@H](O)C=C[C@H]3[C@H]1C5 [MORPHINE] |  |  | 3030 | 10.9 |  |  | 
3 | C[C@@H](NC(=O)[C@@H](N)Cc1ccc(O)cc1)C(=O)N[C@@H](Cc1ccccc1)NC(=O)CC(=O)NCc1ccccc1 | 35 | 7.74 | 556 |  |  |  | 
4 | C[C@@H](NC(=O)[C@@H](N)Cc1ccc(O)cc1)C(=O)N[C@@H](Cc1ccccc1)C(=O)NCNC(=O)C12CC3CC(CC(C3)C1)C2 | 80 | 9.51 | 10.9 | 21.7 | 65 |  | 
5 | C[C@@H](NC(=O)[C@@H](N)Cc1ccc(O)cc1)C(=O)N[C@@H](Cc1ccccc1)C(=O)NCC(=O)NC12CC3CC(CC(C3)C1)C2 | 35 | 8.69 | 5.12 | 18.8 |  |  | 
6 | CC(NC(=O)CC(=O)N[C@H](Cc1ccccc1)NC(=O)[C@@H](C)NC(=O)[C@@H](N)Cc1ccc(O)cc1)c1ccccc1 (stereo partly specified) | 65 | 8.69 | 88.6 | 44.2 | 60 | 0.24 | 
7 | C[C@@H](NC(=O)[C@@H](N)Cc1ccc(O)cc1)C(=O)N[C@@H](Cc1ccccc1)C(=O)NCC(N)=O | 30 | 7.34 | 68 | 68.1 |  |  | 
8 | CCONC(=O)CNC(=O)[C@H](Cc1ccccc1)NC(=O)[C@@H](C)NC(=O)[C@@H](N)Cc1ccc(O)cc1 | 20 | 6.72 | 492 |  |  |  | 
9 | CCONC(=O)CC(=O)N[C@H](Cc1ccccc1)NC(=O)[C@@H](C)NC(=O)[C@@H](N)Cc1ccc(O)cc1 | 30 | 6.49 | 1630 |  |  |  | 
10 | C[C@@H](NC(=O)[C@@H](N)Cc1ccc(O)cc1)C(=O)N[C@@H](Cc1ccccc1)NC(=O)CC(=O)NC12CC3CC(CC(C3)C1)C2 | 65 | 8.35 | 88.4 | 55.5 | 50 |  | 
11 | CC(C(=O)NCNC(=O)[C@H](Cc1ccccc1)NC(=O)[C@@H](C)NC(=O)[C@@H](N)Cc1ccc(O)cc1)c1ccccc1 (stereo partly specified) | 65 | 9.30 | 19.2 | 39.5 | 65 |  | 
12 | C[C@@H](NC(=O)[C@@H](N)Cc1ccc(O)cc1)C(=O)N(C)[C@@H](Cc1ccccc1)NC(=O)CNC(=O)Cc1ccccc1 | 45 | 7.60 | 292 |  |  |  | 
13 | C[C@@H](NC(=O)[C@@H](N)Cc1ccc(O)cc1)C(=O)N(C)[C@@H](Cc1ccccc1)NC(=O)CNC=O | 35 | 6.42 | 642 |  |  |  | 
14 | C[C@@H](NC(=O)[C@@H](N)Cc1ccc(O)cc1)C(=O)N[C@@H](Cc1ccccc1)NC(=O)CC(N)=O | 35 | 6.62 | 974 |  |  |  | 3.11
15 | C[C@@H](NC(=O)[C@@H](N)Cc1ccc(O)cc1)C(=O)N[C@@H](Cc1ccccc1)NC(=O)CC(=O)NO | 30 | 6.48 | 1600 |  |  |  | 
16 | C[C@@H](NC(=O)[C@@H](N)Cc1ccc(O)cc1)C(=O)N[C@@H](Cc1ccccc1)C(=O)NCC(=O)N[C@@H](Cc1ccc(O)cc1)C(=O)N1CCC[C@H]1C(=O)N[C@@H](CO)C(N)=O [DERMORPHIN] | 40 |  | 11.4 | 2.75 | 35 |  | 
17 | CC(NC(=O)CNC(=O)[C@H](Cc1ccccc1)NC(=O)[C@@H](C)NC(=O)[C@@H](N)Cc1ccc(O)cc1)c1ccccc1 (stereo partly specified) | 40 | 9.23 | 7.61 | 13.6 |  |  | 
18 | C[C@@H](NC(=O)[C@@H](N)Cc1ccc(O)cc1)C(=O)N[C@@H](Cc1ccccc1)C(=O)NCNC(=O)Cc1ccccc1 | 60 | 8.67 | 74.1 | 27.8 | 45 |  | 
19 | C[C@@H](NC(=O)[C@@H](N)Cc1ccc(O)cc1)C(=O)N[C@@H](Cc1ccccc1)C(=O)NCC(=O)NO | 25 | 6.97 | 140 |  |  |  | 
20 | C[C@@H](NC(=O)[C@@H](N)Cc1ccc(O)cc1)C(=O)N(C)[C@@H](Cc1ccccc1)NC(=O)CNC(=O)C12CC3CC(CC(C3)C1)C2 | 55 | 7.72 | 246 |  |  |  | 
21 | C[C@@H](NC(=O)[C@@H](N)Cc1ccc(O)cc1)C(=O)N[C@@H](Cc1ccccc1)C(=O)NCC(=O)NCc1ccccc1 | 30 | 8.53 | 33.1 |  |  |  | 
22 | C[C@@H](NC(=O)[C@@H](N)Cc1ccc(O)cc1)C(=O)N[C@@H](Cc1ccccc1)C(=O)NCNC=O | 40 | 7.41 | 157 |  |  |  | 
